Here are results for 34 compounds from PubChem BioAssay AID2124 (Sanford-Burnham Center for Chemical Genomics, 2009).

Results filed as inconclusive are left out. Calls of active or inactive are those of the source. No rule for the calls is given here; tested in MIN6 cells.

As usually defined, the EC50 is the concentration at which the effect is half-maximal.

Assay [1] can be described thus: GFP-wavelength compound autofluorescence in cells – imaging, high-content imaging, artefact control, dose response (AID 2124).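 As to cell count: cells exposed to compound for 48 hours before fixing.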 The conditions noted are these: cells, GFP-channel autofluorescence, high-content imaging; cell count; at 10 µM.
Assay [2] relates to cells, GFP-channel autofluorescence, high-content imaging. Described as above.

`COc1ccc(CN=Cc2[nH]c3ccc(Br)c(Cl)c3c2O)cc1` registered a cell count in assay [1] of 3150 cells. Also, the EC50 in assay [2] was > 16 µM (inactive).

For `N#Cc1cccc(NC(=O)CSc2ccc3c4c(cccc24)C(=O)c2ccccc2-3)c1`, in assay [1], the cell count worked out at 3090 cells. In addition, the EC50 in assay [2] was 4.73 µM.

Compound `Nc1c(C(=O)c2ccccc2)sc2nsc(SCCN3CCCC3)c12` returned a cell count in assay [1] of 2210 cells. For the same compound, the EC50 in assay [2] is 7.98 µM.

The compound `N#Cc1c(NC(=S)NC(=O)c2ccccc2)sc2c1CCN(CCc1ccccc1)C2` registered a cell count in assay [1] of 2330 cells. In addition, the EC50 in assay [2] was 5.79 µM.

In assay [1], `CCCN1C(=O)S/C(=C/c2ccc(N3CCOCC3)o2)C1=O` displayed a cell count of 3210 cells. In addition, the EC50 in assay [2] was 5.4 µM.

Take `Cc1cccn2c(=O)c(/C=C3\SC(=S)N(CC(C)C)C3=O)c(NCCCOC(C)C)nc12`: the cell count in assay [1] turned out to be 2810 cells. For the same compound, in assay [2], the EC50 is > 16 µM (inactive).

In assay [1], `Cc1ccc(CNc2ccc3c(c2)OCO3)cc1` displayed a cell count of 2720 cells. Moreover, the EC50 in assay [2] was 6.18 µM.

Consider `C/C(=N\Nc1ccc([N+](=O)[O-])cc1)c1cc2ccccc2o1`, for which the cell count in assay [1] came to 2980 cells. Besides, the EC50 in assay [2] is 8.87 µM.

`CC(=O)n1c(C=Nc2ccccc2)c(O)c2ccccc21`: the cell count in assay [1] was 3060 cells. Moreover, the EC50 in assay [2] was 8.96 µM.

Turning to `C=CCN1C=CC(=CC=C(C#N)C#N)C=C1`, the cell count in assay [1] turned out to be 2960 cells. Besides, the EC50 in assay [2] is 8.1 µM.

Turning to `COc1cc(/C=C(\C#N)c2nc3ccccc3o2)ccc1O`, in assay [1], the cell count came to 3540 cells. The EC50 in assay [2] is 2.62 µM.

As for `COc1cc([C@@H]2[C@H]3CNCC=C3C(C#N)=C(N)C2(C#N)C#N)ccc1OC(C)C`, the cell count in assay [1] was found to be 3160 cells. In addition, the EC50 in assay [2] is 13.6 µM (inactive).

In turn, `Nc1ccc2c(c1)Cc1cc([N+](=O)[O-])ccc1-2` had a cell count in assay [1] of 2910 cells. Also, the EC50 in assay [2] was 4.22 µM.

`CCCCn1nc(-c2ccccc2)c2nc3ccccc3nc21`: the cell count in assay [1] was 3250 cells. Besides, the EC50 in assay [2] is 13.8 µM (inactive).

For the compound `CCCN1C(=O)/C(=C\C=C2\N(CC)c3ccccc3C2(C)C)SC1=S`, the cell count in assay [1] stood at 2900 cells. The EC50 in assay [2] was 7.93 µM.

As to `CCN(CC)c1ccc2cc(C(N)=O)/c(=N\NC(=O)c3ccncc3)oc2c1`, the cell count in assay [1] is 3100 cells. Moreover, in assay [2], the concentration for a half-maximal effect (EC50) was 9.35 µM.

Consider `Cc1c(-c2ccc(O)cc2)nc2nc(-c3ccccc3)c(-c3ccccc3)nn12`, for which, in assay [1], the cell count turned out to be 3200 cells. In addition, the EC50 in assay [2] was > 16 µM (inactive).

On to `CCN1CCc2c(sc(NC(=S)NC(=O)c3ccc(Cl)cc3)c2C(N)=O)C1`, for which, in assay [1], the cell count amounted to 3040 cells. In addition, the EC50 in assay [2] was 6.61 µM.

The compound `CC(C)/C=C1\CC/C(=C\c2ccc(N(C)C)cc2)C1=O` had a cell count in assay [1] of 2850 cells. Moreover, the EC50 in assay [2] is 9.45 µM.

As for `N#C/C(=C/c1ccc(N2CCOCC2)o1)C(=O)Nc1ccccc1`, the cell count in assay [1] was 3080 cells. In assay [2], the EC50 is 6.7 µM.

In assay [1], `CC(C)N1CC=C2C(C#N)=C(N)C(C#N)(C#N)C(c3ccccc3)C2C1` (stereo not drawn) registered a cell count of 3040 cells. Also, the EC50 in assay [2] is 8.22 µM.

`CCN(CC)c1ccc(/C=C(\C#N)C(=O)c2ccc(Br)cc2)cc1` showed a cell count in assay [1] of 2740 cells. The EC50 in assay [2] is 5.14 µM.

On to `CN1/C(=C\C=C(/C#N)C(=O)Nc2ccccc2F)C(C)(C)c2ccccc21`, for which the cell count in assay [1] amounted to 2910 cells. Moreover, in assay [2], the EC50 is 6.93 µM.

In assay [1], `Cc1ccc(N2C(=O)C3C(C(=O)c4ccccc4)=NN(c4ccccc4)C3C2=O)cc1` (stereo not drawn) yielded a cell count of 2980 cells. In assay [2], the EC50 is > 16 µM (inactive).

`CCN(CC)c1ccc2cc(C(=O)Nc3ccccn3)c(=O)oc2c1` registered a cell count in assay [1] of 3080 cells. Besides, the EC50 in assay [2] was 5.37 µM.

Take `Cc1ccc(NS(=O)(=O)c2cc([N+](=O)[O-])ccc2N/N=C/c2sc(N3CCOCC3)nc2-c2ccccc2)c(C)c1`: the cell count in assay [1] turned out to be 2790 cells. For the same compound, in assay [2], the EC50 is 4.45 µM.

Regarding `CCCN1C(=O)/C(=C/C=C2\N(CC)c3ccccc3C2(C)C)SC1=S`, in assay [1], the cell count was 3030 cells. Also, the half-maximal effective concentration (EC50) in assay [2] was 2.71 µM.

In assay [1], `COc1cc([C@@H]2[C@H]3CN(C)CC=C3C(C#N)=C(N)C2(C#N)C#N)cc2c1OCO2` yielded a cell count of 3070 cells. In addition, the EC50 in assay [2] was 9.32 µM.

Take `COc1ccc2c(c1)NC(c1ccc(N(C)C)cc1)c1cccn1-2` (stereo not drawn): the cell count in assay [1] was determined as 2940 cells. Further, the EC50 in assay [2] is 3.12 µM.

On to `CCCN1C(=O)/C(=C/c2c(N3CCNC(=O)C3CC(=O)OCC)nc3c(C)cccn3c2=O)SC1=S` (stereo not drawn), for which the cell count in assay [1] was 2790 cells. In addition, the EC50 in assay [2] was 5.56 µM.

Regarding `Cc1cc(/C=C2/C(=O)N(C)C(=S)N2C)ccc1N1CCCC1`, the cell count in assay [1] is 2680 cells. The EC50 in assay [2] was 3.02 µM.

`COc1cc2c3nnc(-c4ccc(F)cc4)c-3cn(Cc3ccccc3)c2cc1OC` displayed a cell count in assay [1] of 338 cells. Further, the EC50 in assay [2] is 2.58 µM.

Consider `Cc1cccn2c(=O)c(/C=C3\SC(=S)NC3=O)c(NCCCN3CCOCC3)nc12`, for which, in assay [1], the cell count came out at 2700 cells. Moreover, the EC50 in assay [2] was 9.39 µM.

The compound `Cc1ccc(/C(C#N)=C\c2ccc(N3CCOCC3)o2)cc1` displayed a cell count in assay [1] of 1110 cells. Further, the EC50 in assay [2] is 10.3 µM (inactive).
